Common to all, as to format: cell-based
In assay [1] the target is EGFR(D770_N771insSVD) expressing Ba/F3 stable cell line (Homo sapiens, UniProt P00533, DUP768-770, cells depend on it). Put plainly: Cellular proliferation (Alamar Blue) assay, EGFR D770_N771insSVD Ba/F3. The note with it: 72 hr, read-out: D770 IC50. The method in brief: (§1)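 Alamar Blue read-out, 3 h at 37 °C, after 72 hr compound exposure of Ba/F3 transfectants (15,000 cells/well, RPMI + 10% FBS, plated 16-18 h earlier).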
(In general: Resazurin is reduced to fluorescent resorufin, in cell work by metabolically active cells.)

Assay [2] relates to A431 cells. Put plainly: Cellular proliferation (Alamar Blue) assay, A431.
In assay [3] the target is EGFR (A767_dupASV) expressing Ba/F3 stable cell line (Homo sapiens, UniProt P00533, DUP767-769, cells depend on it). In words: Cellular proliferation (Alamar Blue) assay, EGFR A767_dupASV Ba/F3. The note with it: 72 hr, read-out: A767 IC50. The method in brief:
as §1

In assay [4] the target is EGFR (H773insNPH) expressing Ba/F3 stable cell line (Homo sapiens, UniProt P00533, DUP771-773, cells depend on it). Put plainly: Cellular proliferation (Alamar Blue) assay, EGFR H773insNPH Ba/F3. As to conditions: 72 hr, read-out: NPH IC50. The procedure: • 1. EGFR(D770_N771insSVD) expressing Ba/F3 stable cell line • 2. EGFR (A767_dupASV) expressing Ba/F3 stable cell line • 3. A431 cells • 4. EGFR (H773insNPH) expressing Ba/F3 stable cell line • 5. HER2 (A775_G776insYVMA) expressing Ba/F3 stable cell line Assay Procedure: • 1. Seed cells at 5000 for A431 and 15,000 cells for Ba/F3 in 100 μL/well in complete media (for A431: DMEM with […] and for Ba/F3 cells: RPMI with 10% FBS) in 96-well tissue culture plate. Leave outer wells without cells for background measurements. Incubate at 37 degree Celsius in […] humidified incubator for 16-18 hours. • 2. Add 0.025 ml of 5× concentration compound dilution or DMSO control. Final compound concentration range is 10-0.0005 μM prepared in 3-fold serial dilutions. Incubate for 72 hr at 37 degree Celsius in […] humidified incubator. • 3. Add 0.0125 ml Alamar Blue™ reagent to each well with multi-channel pipette and tap gently on each side of the plate to mix. Incubate for 3 hours at 37 degree Celsius in 5% CO2 humidified incubator. • 4. […] Data analysis was performed using XLfit 5.5.0.5.
Chain of EGFR (H773insNPH) expressing Ba/F3 stable cell line (P00533 with tags, fused parts or gaps DUP771-773): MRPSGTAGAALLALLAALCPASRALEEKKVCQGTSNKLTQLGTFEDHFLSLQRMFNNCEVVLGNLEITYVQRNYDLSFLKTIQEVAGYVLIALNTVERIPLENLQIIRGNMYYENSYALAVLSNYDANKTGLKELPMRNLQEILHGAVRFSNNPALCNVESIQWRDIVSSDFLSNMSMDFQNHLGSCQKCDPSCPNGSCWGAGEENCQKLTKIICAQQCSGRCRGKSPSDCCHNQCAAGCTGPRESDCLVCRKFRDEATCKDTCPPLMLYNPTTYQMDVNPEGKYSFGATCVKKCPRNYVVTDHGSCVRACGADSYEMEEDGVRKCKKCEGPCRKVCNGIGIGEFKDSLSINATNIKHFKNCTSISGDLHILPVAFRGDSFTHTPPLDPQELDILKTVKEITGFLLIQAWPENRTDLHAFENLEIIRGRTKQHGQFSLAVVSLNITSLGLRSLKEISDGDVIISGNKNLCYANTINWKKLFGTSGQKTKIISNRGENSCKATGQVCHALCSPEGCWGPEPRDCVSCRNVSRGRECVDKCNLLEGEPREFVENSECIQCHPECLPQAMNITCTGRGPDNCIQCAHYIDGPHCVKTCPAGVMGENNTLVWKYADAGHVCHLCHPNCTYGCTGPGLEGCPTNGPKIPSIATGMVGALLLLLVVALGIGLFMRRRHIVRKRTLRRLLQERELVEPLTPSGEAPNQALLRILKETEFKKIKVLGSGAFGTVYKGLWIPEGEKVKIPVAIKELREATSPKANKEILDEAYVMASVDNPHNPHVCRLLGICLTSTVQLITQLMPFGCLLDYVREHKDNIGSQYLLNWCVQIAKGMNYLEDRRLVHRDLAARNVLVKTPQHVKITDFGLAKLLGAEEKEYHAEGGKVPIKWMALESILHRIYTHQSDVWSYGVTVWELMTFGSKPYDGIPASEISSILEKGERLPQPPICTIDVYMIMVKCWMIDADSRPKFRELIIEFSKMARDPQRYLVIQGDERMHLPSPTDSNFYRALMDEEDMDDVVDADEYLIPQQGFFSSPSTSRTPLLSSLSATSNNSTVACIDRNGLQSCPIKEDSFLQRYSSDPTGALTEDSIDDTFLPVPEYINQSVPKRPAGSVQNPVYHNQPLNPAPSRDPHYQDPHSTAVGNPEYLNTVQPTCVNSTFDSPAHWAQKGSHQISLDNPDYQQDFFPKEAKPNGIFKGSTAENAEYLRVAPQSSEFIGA

Assay [5] addresses HER2 (A775_G776insYVMA) expressing Ba/F3 stable cell line (Homo sapiens, UniProt P04626, DUP772-775, cells depend on it). In words: Cellular proliferation (Alamar Blue) assay, HER2 A775_G776insYVMA Ba/F3. The note with it: 72 hr, read-out: YVMA IC50. A digest of the protocol: as §1
[6] abbreviates: Homo sapiens, A-431; A431 cells, Alamar Blue, 72 hr; read-out: A431 IC50.
Setting [7] is: Homo sapiens, A-431; A431 cells, 72 hr, Alamar Blue; read-out: A431 IC50.

Consider 18 compounds from patent US12686673B2 (Blueprint Medicines Corporation, priority 2020, dated 2026).

Like-named read-outs stand apart in the source and are kept apart here.

Chain of HER2 (A775_G776insYVMA) expressing Ba/F3 stable cell line (P04626 with tags, fused parts or gaps DUP772-775): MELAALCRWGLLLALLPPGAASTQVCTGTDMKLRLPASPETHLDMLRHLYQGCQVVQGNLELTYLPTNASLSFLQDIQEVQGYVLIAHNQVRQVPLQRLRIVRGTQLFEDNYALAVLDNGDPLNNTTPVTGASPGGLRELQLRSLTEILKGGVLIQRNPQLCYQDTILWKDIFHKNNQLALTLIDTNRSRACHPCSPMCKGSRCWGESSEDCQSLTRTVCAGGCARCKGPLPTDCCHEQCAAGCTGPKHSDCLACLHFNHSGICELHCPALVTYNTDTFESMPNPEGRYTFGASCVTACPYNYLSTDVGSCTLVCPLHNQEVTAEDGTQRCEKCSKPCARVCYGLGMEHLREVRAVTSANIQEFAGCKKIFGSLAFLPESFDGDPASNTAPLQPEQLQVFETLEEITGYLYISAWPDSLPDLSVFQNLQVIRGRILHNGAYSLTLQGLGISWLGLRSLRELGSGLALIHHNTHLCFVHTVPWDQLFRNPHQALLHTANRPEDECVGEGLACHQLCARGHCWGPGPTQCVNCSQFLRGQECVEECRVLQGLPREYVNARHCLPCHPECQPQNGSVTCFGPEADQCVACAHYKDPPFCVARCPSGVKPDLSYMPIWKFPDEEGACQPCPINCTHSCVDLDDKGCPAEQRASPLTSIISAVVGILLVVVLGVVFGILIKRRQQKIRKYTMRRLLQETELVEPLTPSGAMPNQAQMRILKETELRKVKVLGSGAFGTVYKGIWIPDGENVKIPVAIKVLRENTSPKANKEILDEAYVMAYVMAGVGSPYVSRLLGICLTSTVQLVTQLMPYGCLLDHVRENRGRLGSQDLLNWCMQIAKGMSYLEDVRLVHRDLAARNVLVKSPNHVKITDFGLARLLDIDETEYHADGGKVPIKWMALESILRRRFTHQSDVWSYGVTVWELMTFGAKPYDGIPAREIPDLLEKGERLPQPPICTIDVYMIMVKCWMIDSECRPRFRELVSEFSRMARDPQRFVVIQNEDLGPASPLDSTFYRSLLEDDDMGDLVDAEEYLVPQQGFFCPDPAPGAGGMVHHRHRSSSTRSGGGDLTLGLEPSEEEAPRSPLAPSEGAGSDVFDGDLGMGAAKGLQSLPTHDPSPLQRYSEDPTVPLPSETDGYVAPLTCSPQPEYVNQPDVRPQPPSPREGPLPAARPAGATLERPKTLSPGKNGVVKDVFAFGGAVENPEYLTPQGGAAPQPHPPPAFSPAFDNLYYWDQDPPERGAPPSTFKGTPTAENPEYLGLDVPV
Chain of EGFR (A767_dupASV) expressing Ba/F3 stable cell line (P00533 with tags, fused parts or gaps DUP767-769): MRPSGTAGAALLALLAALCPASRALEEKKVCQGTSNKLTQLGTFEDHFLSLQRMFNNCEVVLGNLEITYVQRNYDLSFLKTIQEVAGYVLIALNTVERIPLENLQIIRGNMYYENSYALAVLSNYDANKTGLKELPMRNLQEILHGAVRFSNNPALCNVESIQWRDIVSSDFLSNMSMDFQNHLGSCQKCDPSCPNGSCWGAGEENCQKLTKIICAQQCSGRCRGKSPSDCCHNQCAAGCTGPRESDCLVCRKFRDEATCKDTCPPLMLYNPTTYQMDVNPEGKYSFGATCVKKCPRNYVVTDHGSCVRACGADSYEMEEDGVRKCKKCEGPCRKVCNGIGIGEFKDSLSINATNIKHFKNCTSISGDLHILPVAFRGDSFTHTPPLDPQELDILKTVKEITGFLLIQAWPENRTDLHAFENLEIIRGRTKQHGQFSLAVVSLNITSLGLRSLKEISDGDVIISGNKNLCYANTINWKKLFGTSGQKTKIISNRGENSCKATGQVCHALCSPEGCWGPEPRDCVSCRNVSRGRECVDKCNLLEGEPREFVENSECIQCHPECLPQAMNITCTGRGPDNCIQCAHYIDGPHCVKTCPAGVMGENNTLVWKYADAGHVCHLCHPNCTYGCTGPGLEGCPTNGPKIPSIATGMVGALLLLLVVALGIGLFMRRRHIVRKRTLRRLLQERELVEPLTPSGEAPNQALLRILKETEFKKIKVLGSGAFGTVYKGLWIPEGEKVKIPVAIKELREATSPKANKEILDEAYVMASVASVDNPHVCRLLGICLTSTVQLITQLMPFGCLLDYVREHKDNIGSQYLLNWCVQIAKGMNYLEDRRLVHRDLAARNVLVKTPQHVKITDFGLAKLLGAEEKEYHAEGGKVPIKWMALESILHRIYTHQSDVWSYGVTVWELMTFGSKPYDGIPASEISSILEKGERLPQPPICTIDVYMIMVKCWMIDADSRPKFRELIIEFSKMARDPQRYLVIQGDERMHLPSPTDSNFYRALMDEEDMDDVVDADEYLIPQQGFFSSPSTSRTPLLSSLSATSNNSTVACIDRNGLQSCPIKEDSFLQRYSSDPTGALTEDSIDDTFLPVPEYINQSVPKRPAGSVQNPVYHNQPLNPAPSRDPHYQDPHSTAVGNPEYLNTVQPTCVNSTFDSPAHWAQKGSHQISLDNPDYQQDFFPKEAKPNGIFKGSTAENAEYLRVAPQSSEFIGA
Chain of EGFR(D770_N771insSVD) expressing Ba/F3 stable cell line (P00533 with tags, fused parts or gaps DUP768-770): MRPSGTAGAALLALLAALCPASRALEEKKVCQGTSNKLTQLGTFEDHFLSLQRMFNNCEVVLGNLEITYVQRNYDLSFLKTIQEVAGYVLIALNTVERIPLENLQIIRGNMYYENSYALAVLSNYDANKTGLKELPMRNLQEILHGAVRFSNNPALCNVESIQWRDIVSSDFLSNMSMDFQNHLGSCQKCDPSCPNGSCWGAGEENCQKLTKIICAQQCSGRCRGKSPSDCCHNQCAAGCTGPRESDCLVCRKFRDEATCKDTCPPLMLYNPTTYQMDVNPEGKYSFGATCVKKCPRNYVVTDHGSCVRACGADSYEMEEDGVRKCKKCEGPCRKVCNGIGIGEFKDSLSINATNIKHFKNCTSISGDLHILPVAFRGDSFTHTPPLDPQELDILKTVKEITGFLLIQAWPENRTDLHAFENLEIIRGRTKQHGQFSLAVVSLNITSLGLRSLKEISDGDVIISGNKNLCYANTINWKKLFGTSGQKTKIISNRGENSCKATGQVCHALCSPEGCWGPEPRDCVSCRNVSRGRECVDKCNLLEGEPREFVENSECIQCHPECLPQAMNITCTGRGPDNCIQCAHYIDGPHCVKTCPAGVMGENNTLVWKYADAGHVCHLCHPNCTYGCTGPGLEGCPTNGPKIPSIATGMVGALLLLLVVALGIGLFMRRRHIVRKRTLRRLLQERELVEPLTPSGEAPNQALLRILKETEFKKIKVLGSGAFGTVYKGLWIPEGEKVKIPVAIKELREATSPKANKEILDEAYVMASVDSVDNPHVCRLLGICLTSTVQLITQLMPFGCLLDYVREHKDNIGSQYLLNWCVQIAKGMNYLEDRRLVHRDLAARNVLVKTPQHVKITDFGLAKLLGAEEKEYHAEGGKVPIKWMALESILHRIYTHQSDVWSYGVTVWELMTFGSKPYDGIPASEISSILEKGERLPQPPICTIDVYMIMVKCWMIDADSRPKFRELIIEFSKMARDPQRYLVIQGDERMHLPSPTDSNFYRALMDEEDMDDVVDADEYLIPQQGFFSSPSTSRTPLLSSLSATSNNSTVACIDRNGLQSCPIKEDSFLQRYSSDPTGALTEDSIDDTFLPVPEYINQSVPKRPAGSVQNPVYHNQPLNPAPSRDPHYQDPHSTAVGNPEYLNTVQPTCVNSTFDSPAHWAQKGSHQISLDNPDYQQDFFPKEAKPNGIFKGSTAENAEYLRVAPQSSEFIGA

Regarding `C=CC(=O)Nc1ccc(F)c(Nc2nc(Nc3cnn(C4CCC(O)CC4)c3)ncc2Cl)c1` (stereo not shown) [Compound 1, N-(3-((5-chloro-2-((1-(4-hydroxycyclohexyl)-1H-pyrazol-4-yl)amino)pyrimidin-4-yl)amino)-4-fluorophenyl)acrylamide], the values for the GI50 in assay [1], in assay [3] and in assay [4] were 1030 nM, 930 nM and 796 nM, respectively. Moreover, the IC50 (commonly the concentration that gives 50% inhibition) in assay [2] (setting [6]) was determined as 3920 nM.
For `C=CC(=O)Nc1ccc(F)c(Nc2nc(Nc3cnn(C)c3)ncc2-c2ccc(Cl)nc2)c1` [Compound 101, N-(3-((5-(6-chloropyridin-3-yl)-2-((1-methyl-1H-pyrazol-4-yl)amino)pyrimidin-4-yl)amino)-4-fluorophenyl)acrylamide], the IC50 in assay [2] (setting [6]) was 56 nM. Moreover, the GI50 amounted to 13 nM in assay [3] and 30 nM in assay [4].
Take `C=CC(=O)Nc1ccc(F)c(Nc2nc(Nc3cnn(C)c3)ncc2-c2cnc(C(F)(F)F)nc2)c1` [Compound 123, N-(4-fluoro-3-((2-((1-methyl-1H-pyrazol-4-yl)amino)-2′-(trifluoromethyl)-[5,5′-bipyrimidin]-4-yl)amino)phenyl)acrylamide]: the GI50 in assay [1] came to 24 nM; in assay [3] it was 16 nM; in assay [4] it was 30 nM.
Consider `C=CC(=O)Nc1ccc(F)c(Nc2nc(Nc3cnn(C(C)(C)C#N)c3)ncc2-c2ccc(C(F)(F)F)cc2)c1` [Compound 246, N-(3-((2-((1-(2-cyanopropan-2-yl)-1H-pyrazol-4-yl)amino)-5-(4-(trifluoromethyl)phenyl)pyrimidin-4-yl)amino)-4-fluorophenyl)acrylamide], for which the GI50 in assay [1] stood at 299 nM; in assay [3] it was 303 nM; in assay [5], 2070 nM. Further, the IC50 in assay [2] (setting [7]) was 368 nM.
The like results for `[2H]C([2H])=CC(=O)Nc1ccc(F)c(Nc2nc(Nc3cn(C)nc3Cl)ncc2-c2ccc(C(F)(F)F)cc2)c1` [Compound 249, N-(3-((2-((3-chloro-1-methyl-1H-pyrazol-4-yl)amino)-5-(4-(trifluoromethyl)phenyl)pyrimidin-4-yl)amino)-4-fluorophenyl)acrylamide-3,3-d2] were, in that order, 101 nM, 261 nM, 1050 nM and 123 nM.
As to `[2H]C([2H])=CC(=O)Nc1ccc(F)c(Nc2nc(Nc3cnn(C)c3)ncc2-c2ccc(Br)cc2)c1` [Compound 250, N-(3-((5-(4-bromophenyl)-2-((1-methyl-1H-pyrazol-4-yl)amino)pyrimidin-4-yl)amino)-4-fluorophenyl)acrylamide-3,3-d2], the GI50 in assay [1] came out at 34 nM; in assay [3], 47 nM; in assay [5] it was 204 nM. In addition, the IC50 in assay [2] (setting [7]) was determined as 65 nM.
Turning to `C#CC(=O)Nc1ccc(F)c(Nc2nc(Nc3cnn(C)c3)ncc2-c2ccc(C(F)(F)F)cc2)c1` [Compound 254, N-[4-fluoro-3-({2-[(1-methyl-1H-pyrazol-4-yl)amino]-5-[4-(trifluoromethyl)phenyl]pyrimidin-4-yl}amino)phenyl] prop-2-ynamide], the GI50 in assay [1] amounted to 8460 nM; in assay [3] it was 9470 nM; in assay [5], 8670 nM. The IC50 in assay [2] (setting [7]) came to 1000 nM.
For the compound `C=CC(=O)Nc1ccc(F)c(Nc2nc(Nc3cnn(C)c3)ncc2Br)c1` [Compound 256, N-(3-((5-bromo-2-((1-methyl-1H-pyrazol-4-yl)amino)pyrimidin-4-yl)amino)-4-fluorophenyl)acrylamide], the GI50 in assay [1] came out at 923 nM; in assay [3] it was 411 nM; in assay [5] it was 755 nM. For the same compound, the IC50 in assay [2] (setting [7]) worked out at 1020 nM.
On to `C=CC(=O)Nc1ccc(F)c(Nc2nc(Nc3cnn(C)c3)ncc2-c2ccc3ncnn3c2)c1` [Compound 279, N-(3-((5-([1,2,4]triazolo[1,5-a]pyridin-6-yl)-2-((1-methyl-1H-pyrazol-4-yl)amino)pyrimidin-4-yl)amino)-4-fluorophenyl)acrylamide], for which the GI50 in assay [1] was 149 nM; in assay [3] it was 328 nM; in assay [5] it was 471 nM. Moreover, the IC50 in assay [2] (setting [7]) worked out at 93 nM.
As for `C=CC(=O)Nc1cccc(Nc2nc(Nc3cnn(C)c3)ncc2-c2ccc(CC(F)(F)F)cc2)c1` [Compound 293, N-(3-((2-((1-methyl-1H-pyrazol-4-yl)amino)-5-(4-(2,2,2-trifluoroethyl)phenyl)pyrimidin-4-yl)amino)phenyl)acrylamide], the GI50 in assay [1] was 21 nM; in assay [3], 28 nM; in assay [5], 110 nM. For the same compound, the 50% inhibitory concentration (IC50) in assay [2] (setting [7]) is 4 nM.
Regarding `C=CC(=O)Nc1ccc(F)c(Nc2nc(Nc3cnn(C)c3)ncc2-c2ccc(C3(C(F)(F)F)CC3)cc2)c1` [Compound 294, N-(4-fluoro-3-((2-((1-methyl-1H-pyrazol-4-yl)amino)-5-(4-(1-(trifluoromethyl)cyclopropyl)phenyl)pyrimidin-4-yl)amino)phenyl)acrylamide], the GI50 in assay [1] turned out to be 100 nM; in assay [3] it was 80 nM; in assay [5] it was 803 nM. Moreover, the IC50 in assay [2] (setting [7]) was 45 nM.
The like results for `C=CC(=O)Nc1cc(F)cc(Nc2nc(Nc3cnn(C)c3)ncc2-c2ccc(CC(F)(F)F)cc2)c1` [Compound 295, N-(3-fluoro-5-((2-((1-methyl-1H-pyrazol-4-yl)amino)-5-(4-(2,2,2-trifluoroethyl)phenyl)pyrimidin-4-yl)amino)phenyl)acrylamide] were, in that order, 34 nM, 38 nM, 210 nM and 6 nM.
The like results for `C=CC(=O)Nc1ccc(F)c(Nc2nc(Nc3cnn(C)c3)ncc2-c2ccc(C(F)(F)C(F)(F)F)cc2)c1` [Compound 296, N-(4-fluoro-3-((2-((1-methyl-1H-pyrazol-4-yl)amino)-5-(4-(perfluoroethyl)phenyl)pyrimidin-4-yl)amino)phenyl)acrylamide] were, in that order, 84 nM, 106 nM, 971 nM and 32 nM.
For the compound `C=CC(=O)Nc1ccc(F)c(Nc2nc(Nc3cnn(C)c3)ncc2-c2csc(Cl)c2)c1` [Compound 298, N-(3-((5-(5-chlorothiophen-3-yl)-2-((1-methyl-1H-pyrazol-4-yl)amino)pyrimidin-4-yl)amino)-4-fluorophenyl)acrylamide], the GI50 in assay [1] was found to be 99 nM; in assay [3], 128 nM; in assay [5], 402 nM. Also, the IC50 in assay [2] (setting [7]) came out at 120 nM.
The matching figures for `C=CC(=O)Nc1ccc(F)c(Nc2nc(Nc3cnn(C)c3)ncc2-c2ccc3ccoc3c2)c1` [Compound 299, N-(3-((5-(benzofuran-6-yl)-2-((1-methyl-1H-pyrazol-4-yl)amino)pyrimidin-4-yl)amino)-4-fluorophenyl)acrylamide]: 99 nM, 257 nM, 339 nM and 173 nM.
The like results for `C=CC(=O)Nc1ccc(F)c(Nc2nc(Nc3cnn(C)c3)ncc2-c2ccc(Oc3cccc(F)c3)cc2)c1` [Compound 300, N-(4-fluoro-3-((5-(4-(3-fluorophenoxy)phenyl)-2-((1-methyl-1H-pyrazol-4-yl)amino)pyrimidin-4-yl)amino)phenyl)acrylamide] were, in that order, 1160 nM, 289 nM, 9740 nM and 229 nM.
The matching figures for `CN(C)C/C=C/C(=O)Nc1ccc(F)c(Nc2nc(Nc3cnn(C)c3)ncc2-c2ccc(CC(F)(F)F)cc2)c1` [Compound 301, (E)-4-(dimethylamino)-N-(4-fluoro-3-((2-((1-methyl-1H-pyrazol-4-yl)amino)-5-(4-(2,2,2-trifluoroethyl)phenyl)pyrimidin-4-yl)amino)phenyl)but-2-enamide]: 193 nM, 68 nM, 187 nM and 16 nM.
Turning to `C=CC(=O)Nc1cc(Br)cc(Nc2nc(Nc3cnn(C)c3)ncc2-c2ccc(CC(F)(F)F)cc2)c1` [Compound 302, N-(3-bromo-5-((2-((1-methyl-1H-pyrazol-4-yl)amino)-5-(4-(2,2,2-trifluoroethyl)phenyl)pyrimidin-4-yl)amino)phenyl)acrylamide], the GI50 in assay [1] worked out at 99 nM; in assay [3], 67 nM; in assay [5] it was 653 nM. The IC50 in assay [2] (setting [7]) was determined as 12 nM.
